Among the test systems are HCT-15 colon; ACHN renal; RPMI-8226 leukemia; LOX IMVI melanoma; MDA-MB-231 breast; UACC-257 melanoma; NCI-H460 lung; MDA-MB-435; HS 578T breast; HOP-62 NSCLC.
What all share (experiment): NCI-60 cell line screen, 48 h

Where “and” joins values, the source holds several entries; their conditions need not be identical. Identical values can stand only once.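 Where inhibition never reached the appropriate level, the endpoint shown equals the highest concentration tested. Otherwise, values were interpolated linearly from a five-concentration, 48-hour dose response in 96-well plates. The concentration for 50% growth inhibition is given as GI50. TGI: total growth inhibition.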 A value given as a limit tells only on which side of the number the result lay.

`CN1C(=O)C(N=Nc2ccc([N+](=O)[O-])cc2)SC1=S` (stereo not drawn): the GI50 was 2.63 µM and 6.8 µM in the experiment with HCT-15 colon; 3.19 µM and 9.51 µM in the experiment on ACHN renal; 2.62 µM and 2.09 µM with RPMI-8226 leukemia; 2.56 µM and 9.05 µM in the experiment with LOX IMVI melanoma; 13.3 µM and 11.7 µM in the experiment with MDA-MB-231 breast; 3.63 µM and 10.9 µM in the experiment on UACC-257 melanoma. In addition, the GI50 with NCI-H460 lung was 2.98 µM and 5.43 µM; with MDA-MB-435, 3.86 µM and 16.1 µM; in the experiment with HS 578T breast, 2.47 µM and 16.2 µM; in the experiment with HOP-62 NSCLC it was 9.55 µM and 12.2 µM. Moreover, the TGI in the experiment with HCT-15 colon is greater than 100 µM; in the experiment on ACHN renal, 99 µM and 62.4 µM; in the experiment on RPMI-8226 leukemia, 52.4 µM and 18 µM; with LOX IMVI melanoma, 48.5 µM and 98.4 µM; with MDA-MB-231 breast, 51 µM and 44.3 µM; in the experiment with UACC-257 melanoma, 27.1 µM and 54.4 µM. Further, the TGI with NCI-H460 lung was 24.9 µM and > 100 µM; in the experiment on MDA-MB-435, 32.3 µM and 77.1 µM; in the experiment on HS 578T breast, 22.5 µM and > 100 µM; in the experiment on HOP-62 NSCLC it was greater than 100 µM.
With `CCOC(=O)c1c(C)n([O-])c2cc(F)c(F)cc2[n+]1=O`, the GI50 with HCT-15 colon was 0.455 µM; in the experiment with ACHN renal, 1.73 µM; in the experiment with RPMI-8226 leukemia it was 6.18 µM; in the experiment on LOX IMVI melanoma, 0.514 µM; with MDA-MB-231 breast it was 0.955 µM; with UACC-257 melanoma it was 1.7 µM. Besides, the GI50 in the experiment on NCI-H460 lung is 2.88 µM; in the experiment with MDA-MB-435, 1.56 µM; with HS 578T breast, 1.73 µM; in the experiment on HOP-62 NSCLC, 2.1 µM. The TGI in the experiment with HCT-15 colon is 2.04 µM; in the experiment on ACHN renal, 3.23 µM; in the experiment on RPMI-8226 leukemia it was 28.2 µM; in the experiment on LOX IMVI melanoma, 1.63 µM; in the experiment with MDA-MB-231 breast, 2.58 µM; in the experiment on UACC-257 melanoma, 3.69 µM. The TGI with NCI-H460 lung was 15.9 µM; in the experiment on MDA-MB-435 it was 3.11 µM; with HS 578T breast, 5.06 µM; with HOP-62 NSCLC, 3.74 µM.
As to `Cc1ccc(C2=NN(c3ccc(S(=O)(=O)NC(=O)NCc4ccccc4)cc3)C(c3ccc(N(C)C)cc3)C2)c(C)c1` (stereo not drawn), the GI50 with HCT-15 colon was 3.27 µM; in the experiment on ACHN renal, 3.97 µM; in the experiment on RPMI-8226 leukemia, 2.88 µM; with LOX IMVI melanoma, 4.08 µM; in the experiment on MDA-MB-231 breast it was 4.16 µM; with UACC-257 melanoma, 4.64 µM. Further, the GI50 is 3.33 µM in the experiment on NCI-H460 lung, 2.51 µM with MDA-MB-435, 2.48 µM in the experiment with HS 578T breast and 5.69 µM in the experiment on HOP-62 NSCLC. Further, the TGI with HCT-15 colon was greater than 100 µM; in the experiment with ACHN renal, greater than 100 µM; in the experiment with RPMI-8226 leukemia, 10.6 µM; in the experiment on LOX IMVI melanoma it was 14.1 µM; in the experiment on MDA-MB-231 breast, 22.4 µM; with UACC-257 melanoma it was greater than 100 µM. Besides, the TGI in the experiment on NCI-H460 lung was 10.4 µM; in the experiment with MDA-MB-435 it was 7.08 µM; with HS 578T breast, 7.02 µM; with HOP-62 NSCLC, 28 µM.
As for `Cc1cc(S(=O)(=O)Nc2nc3ccccc3c(=O)n2Cc2ccco2)c(S)cc1Cl`, the GI50 in the experiment with HCT-15 colon was 55 µM; in the experiment with ACHN renal, 49.8 µM; in the experiment with RPMI-8226 leukemia, 27 µM; in the experiment on LOX IMVI melanoma, 26.1 µM; in the experiment with MDA-MB-231 breast, 38.5 µM; with UACC-257 melanoma, greater than 100 µM. Moreover, the GI50 is 33.3 µM with NCI-H460 lung, 41.2 µM in the experiment with MDA-MB-435, 30.5 µM in the experiment on HS 578T breast and 32.8 µM in the experiment on HOP-62 NSCLC. In addition, the TGI with HCT-15 colon was greater than 100 µM; in the experiment with ACHN renal it was greater than 100 µM; with RPMI-8226 leukemia it was greater than 100 µM; in the experiment with LOX IMVI melanoma, 59.3 µM; in the experiment on MDA-MB-231 breast, greater than 100 µM; in the experiment with UACC-257 melanoma it was greater than 100 µM. For the same molecule, the TGI with NCI-H460 lung was greater than 100 µM; in the experiment with MDA-MB-435, greater than 100 µM; in the experiment with HS 578T breast, greater than 100 µM; in the experiment with HOP-62 NSCLC it was 69.6 µM.
On to `CCOC(=O)c1c(-c2ccccc2)n2c(=O)cc(C)c3c(O)c(O)cc1c32`, for which the GI50 is 1.66 µM with HCT-15 colon; 5.94 µM in the experiment on ACHN renal; 3.98 µM with RPMI-8226 leukemia; 4.96 µM with LOX IMVI melanoma; 6.64 µM with MDA-MB-231 breast; 6.38 µM in the experiment on UACC-257 melanoma. Besides, the GI50 is 2.6 µM in the experiment on NCI-H460 lung, 15.7 µM with MDA-MB-435, 14.7 µM in the experiment on HS 578T breast and 11.1 µM with HOP-62 NSCLC. Further, the TGI with HCT-15 colon was 19.5 µM; in the experiment on ACHN renal, 43.1 µM; in the experiment with RPMI-8226 leukemia it was 17.9 µM; in the experiment on LOX IMVI melanoma it was 22.8 µM; in the experiment on MDA-MB-231 breast, 27.7 µM; in the experiment on UACC-257 melanoma, 28.7 µM. For the same molecule, the TGI with NCI-H460 lung is 25.3 µM; in the experiment with MDA-MB-435 it was greater than 100 µM; with HS 578T breast it was 56.6 µM; in the experiment with HOP-62 NSCLC, 54.5 µM.
As for `Nc1c(C(=O)Nc2cccc(Cl)c2)sc2nc3c(cc12)C(O)CCC3` (stereo not drawn), the GI50 is 0.37 µM in the experiment on HCT-15 colon; 1.04 µM with ACHN renal; 0.36 µM in the experiment with RPMI-8226 leukemia; 0.762 µM with LOX IMVI melanoma; 1.92 µM in the experiment with MDA-MB-231 breast; 0.388 µM in the experiment on NCI-H460 lung. The figures for the GI50 with MDA-MB-435, with HS 578T breast and in the experiment on HOP-62 NSCLC were 0.121 µM, 1.62 µM and 0.569 µM, respectively. Besides, the TGI in the experiment on HCT-15 colon is greater than 100 µM; in the experiment with ACHN renal, 23.4 µM; with RPMI-8226 leukemia it was 5.01 µM; in the experiment on LOX IMVI melanoma it was 52.1 µM; with MDA-MB-231 breast it was 49.1 µM; with NCI-H460 lung, 16.8 µM. For the same molecule, the values for the TGI in the experiment with MDA-MB-435, in the experiment on HS 578T breast and in the experiment with HOP-62 NSCLC were 0.408 µM, greater than 74 µM and 23.9 µM, respectively.
